Patent US8026231B2, “Aminothiolester compounds, pharmaceutical and cosmetic compositions containing same and uses thereof” (CNRS, priority 2000, dated 2011)

How the values were obtained:
[1] = system: ALDH1; assay: Effect on the activity of ALDH1 after preincubation; type: biochemical, baker's yeast; details: 400 μM
Protocol: The procedure used is given below: 260 mU of ALDH from baker's yeast are preincubated at 37 or 0° C. in a mixture of 1 mM EDTA, 100 mM KCl, in 60 mM of sodium phosphate buffer pH 6 in a final volume of 200 μl.
To each tube containing the 200 μl of mixture, the test compound is added to a concentration of 400 μM, with the exception of a control series which contains no test compound.
The incubation carried out at 0° C. or at 37° C. is stopped by adding 100 μg of BSA (bovine serum albumin) and acetone at −20° C. to a final concentration of 80% in order to precipitate the proteins (ALDH and BSA). The tubes are left at −20° C. for 1 hour and then centrifuged at 10 000 rpm for 10 minutes and washed with 80% acetone. […]
The reaction is started by adding 2 mM of propanal and the optical density (OD) is measured at 340 nm at T=0 and at T=5, 10, 20 and 30 minutes.
The activity of the enzyme is measured by the variation in optical density Δ OD per minute (Quash G. et al., Enzymology and molecular biology of carbonyl metabolism, Weiner et al. eds., Kluwer Academic/Plenum Publishers, New York, 97-106).
The percentage activity (A %) of the ALDH1 enzyme obtained at different preincubation times with the compound of Example 1 at 0° C. […] (represented by Δ) is measured as a function of the time t (expressed in minutes).

[2] = system: DU145 cells; assay: Growth of DU145 cells (protein and DNA assay, 72 h); type: cell-based, human; details: 50% inhibition of cell growth
Protocol: The cells used correspond to two cell lines: metastatic cells of human prostate cancer (DU145) and murine lymphoid cells transfected with the human bcl2 gene (BAF3 bcl2).
The procedure used for the tests on DU145 is as follows: • 10^5 cells are incubated in the various wells of a microplate in 1 ml of culture medium.
The compounds are added 4 hours after placing the cells in the wells.
After 72 hours, the cells are removed at different times. The DU145 cells are washed twice with PBS and recovered directly with 0.1M sodium chloride.
The effect on the growth of the DU145 cells is measured by protein assay according to the Lowry method (Lowry, O. H., Rosenbrough, N. J., Farr, A. L. and Randall, J. Biol. Chem. 193, 265-275, (1951)) and DNA assay by the Hoechst method (West, D. C., Sattar, A. and Kumar, S., Anal. Biochem. 147, 289-295, (1985)).
The IC50 concentration is the concentration corresponding to a 50% inhibition of cell growth.

CSC(=O)C#CC(C)(C)N(C)C [Example 1, S-methyl 4-dimethyl-amino-4-methyl-2-pentynethioate]
Inhibition of the activity of the ALDH1 enzyme ([1]; pre-incubation at 0° C.): no effect of inhibition | Inhibition of the activity of the ALDH1 enzyme ([1]; pre-incubation at 37° C.): an effect of inhibition of the activity of the enzyme is observed | IC50 [2]: 5.9 µM
